target: Human factor D (Homo sapiens (Human), UniProt P00746); assay: Human Factor D Assay; format: biochemical; settings: Human factor D purified from human serum, 80 nM; substrate Z-L-Lys-SBzl with DTNB; assay of Example 8
Experimental: The assay of Example 8 was used to determine the IC50's of the compounds. Other standard factor D inhibition assays are also available.
Example 8. Human Factor D Assay
Human factor D (purified from human serum, Complement Technology, Inc.) at 80 nM final concentration is incubated with test compound at various concentrations for 5 minutes at room temperature in 50 mM Tris, 1M NaCl, pH 7.5. A synthetic substrate Z-L-Lys-SBzl and DTNB (Ellman's reagent) are added to final concentrations of 100 µM each. The increase in color is recorded at OD405 nm in a microplate in kinetic mode over 30 minutes with 30 second time points in a […]. IC50 values are calculated by non-linear regression from the percentage of inhibition of complement factor D activity as a function of test compound concentration.

Chain of Human factor D (P00746 26-253): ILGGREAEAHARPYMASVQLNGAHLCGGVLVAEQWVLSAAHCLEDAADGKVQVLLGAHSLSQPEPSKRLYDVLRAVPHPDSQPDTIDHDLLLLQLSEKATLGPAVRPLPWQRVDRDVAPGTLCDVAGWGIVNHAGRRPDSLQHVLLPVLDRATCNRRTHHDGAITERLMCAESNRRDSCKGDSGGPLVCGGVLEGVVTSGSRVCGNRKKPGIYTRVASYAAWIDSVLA

Structure (SMILES) | IC50 [nM]
CC(=O)c1cn(CC(=O)N2C[C@H](F)C[C@H]2C(=O)Nc2cccc(Br)n2)c2ccc(Oc3ncc(C)cn3)cc12 [Compound 41, (2S,4R)-1-(2-(3-acetyl-5-(5-methylpyrimidin-2-yloxy)-1H-indol-1-yl)acetyl)-N-(6-bromopyridin-2-yl)-4-fluoropyrrolidine-2-carboxamide] | < 1000
CC(=O)c1cn(CC(=O)N2C[C@H](F)C[C@H]2C(=O)Nc2cccc(-c3ccccc3Cl)c2F)c2ccc(Oc3ncc(C(F)(F)F)cn3)cc12 [Compound 42, (2S,4R)-1-(2-(3-acetyl-5-(5-(trifluoromethyl)pyrimidin-2-yloxy)-1H-indol-1-yl)acetyl)-N-(2′-chloro-2-fluorobiphenyl-3-yl)-4-fluoropyrrolidine-2-carboxamide] | < 1000
CC(=O)c1cn(CC(=O)N2C[C@H](F)C[C@H]2C(=O)Nc2cccc(-c3ccccc3Cl)c2F)c2ccc(Oc3cnc(Cl)nc3)cc12 [Compound 43, (2S,4R)-1-(2-(3-acetyl-5-(2-chloropyrimidin-5-yloxy)-1H-indol-1-yl)acetyl)-N-(2′-chloro-2-fluorobiphenyl-3-yl)-4-fluoropyrrolidine-2-carboxamide] | < 1000
